Results reported in US10307413B2, “Tetrahydro- and dihydro-isoquinoline PRMT5 inhibitors and uses thereof” (Epizyme, Inc., priority 2013, dated 2019).

Legend:
Z-138 cell line = assay: Z-138 Proliferation Assay (Cell Titer Glo, 5 days); assay type: cell-based; details: Homo sapiens, 120 h; Z-138 cells, 5 days; read-out: Proliferation EC50
Summary of the method: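 Viability via CellTiter-Glo luminescence (ATP) after 5-day incubation at 37 °C, 5% CO2. Compounds tested in triplicate, nine 3-fold steps, highest final concentration 20 μM in 0.2% DMSO; 50% inhibitory concentration by 4-parameter fit of normalized curves.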

[1] = tested on: symmetric di-methyl arginine in Z-138 cells; assay: Z-138 Methylation Assay (In Cell Western for symmetric di-methyl arginine and DNA content); assay type: cell-based; details: Homo sapiens, read-out: ICW EC50
Summary of the method: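 In-cell western: symmetric di-methyl arginine signal ratioed to DRAQ5 DNA content after 96 h compound exposure of Z-138 cells seeded at 50,000 cells/mL.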

PRMT5/MEP50 = PRMT5/MEP50 (Homo sapiens (Human), UniProt O14744); assay: PRMT5 Biochemical Assay (PRMT5/MEP50 enzyme assay on peptide substrate, 3H-SAM Flashplate)
Text: S-adenosylmethionine (SAM), S-adenosylhomocysteine (SAH), bicine, KCl, Tween20, dimethylsulfoxide (DMSO), bovine skin gelatin (BSG), and Tris(2-carboxyethyl)phosphine hydrochloride solution (TCEP) were purchased from Sigma-Aldrich at the highest level of purity possible. ^3H-SAM was purchase from American Radiolabeled Chemicals with a specific activity of 80 Ci/mmol. 384-well streptavidin Flashplates were purchased from PerkinElmer.
Peptide representative of human histone H4 residues 1-15 was synthesized with a C-terminal linker-affinity tag motif and a C-terminal amide cap by 21st Century Biochemicals.
The amplified genes were sublconed into pENTR/D/TEV (Life Technologies) and subsequently transferred by Gateway™ attL×attR recombination to pDEST8 baculovirus expression vector (Life Technologies).
Protein over-expression was accomplished by infecting exponentially growing Spodoptera frugiperda (SF9) cell culture at 1.2×10^6 cell/ml with a 5000 fold dilution of BIIC stock. Infections were carried out at 27° C. for 72 hours, harvested by centrifugation, and stored at −80° C. for purification.
Flag-PRMT5/6His-MeP50 was eluted with 300 mM Imidazole in the same buffer.
General Procedure for PRMT5/MEP50 Enzyme Assays on Peptide Substrates.
The assays were all performed in a buffer consisting of 20 mM Bicine (pH=7.6), 1 mM TCEP, 0.005% BSG, and 0.002% Tween20, prepared on the day of use. […] DMSO (1 ul) was added to Columns 11, 12, 23, 24, rows A-H for the maximum signal control and 1 ul of SAH, a known product and inhibitor of PRMT5/MEP50, was added to columns 11, 12, 23, 24, rows I-P for the minimum signal control. A cocktail (40 ul) containing the PRMT5/MEP50 enzyme and the peptide was added by Multidrop Combi (Thermo-Fisher). The compounds were allowed to incubate with PRMT5/MEP50 for 30 min at 25 degrees Celsius, then a cocktail (10 ul) containing ^3H-SAM was added to initiate the reaction (final volume=51 ul). […] The assays were stopped by the addition of non-radioactive SAM (10 ul) to a final concentration of 600 uM, which dilutes the ^3H-SAM to a level where its incorporation into the peptide substrate is no longer detectable. 50 ul of the reaction in the 384-well polypropylene plate was then transferred to a 384-well Flashplate and the biotinylated peptides were allowed to bind to the streptavidin surface for at least 1 hour before being washed three times with 0.1% Tween20 in a Biotek ELx405 plate washer. The plates were then read in a PerkinElmer TopCount plate reader to measure the quantity of ^3H-labeled peptide bound to the Flashplate surface, measured as disintegrations per minute (dpm) or alternatively, referred to as counts per minute (cpm).
[formula] [formula] Where dpm=disintegrations per minute, cmpd=signal in assay well, and min and max are the respective minimum and maximum signal controls.
[formula] [formula] Where top and bottom are the normally allowed to float, but may be fixed at 100 or 0 respectively in a 3-parameter fit. The Hill Coefficient normally allowed to float but may also be fixed at 1 in a 3-parameter fit. Y is the % inhibition and X is the compound concentration.

Chain of PRMT5/MEP50 (O14744 other isoform, or with tags, fused parts or gaps): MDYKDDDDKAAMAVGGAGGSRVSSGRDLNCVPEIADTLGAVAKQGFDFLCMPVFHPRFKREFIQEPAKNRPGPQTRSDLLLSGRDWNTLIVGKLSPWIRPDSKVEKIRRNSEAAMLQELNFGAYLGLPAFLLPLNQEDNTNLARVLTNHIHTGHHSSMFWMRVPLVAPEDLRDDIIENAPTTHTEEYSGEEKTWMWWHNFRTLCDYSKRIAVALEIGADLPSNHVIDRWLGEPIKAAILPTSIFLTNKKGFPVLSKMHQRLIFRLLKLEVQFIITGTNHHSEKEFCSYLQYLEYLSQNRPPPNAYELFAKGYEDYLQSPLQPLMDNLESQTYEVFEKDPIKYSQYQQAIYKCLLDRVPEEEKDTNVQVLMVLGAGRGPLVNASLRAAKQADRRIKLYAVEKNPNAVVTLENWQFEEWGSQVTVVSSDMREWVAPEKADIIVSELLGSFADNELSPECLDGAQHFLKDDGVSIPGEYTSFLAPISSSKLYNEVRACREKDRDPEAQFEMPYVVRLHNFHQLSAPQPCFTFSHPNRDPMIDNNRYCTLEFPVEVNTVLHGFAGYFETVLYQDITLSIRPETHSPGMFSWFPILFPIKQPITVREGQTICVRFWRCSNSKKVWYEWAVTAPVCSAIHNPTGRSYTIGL
Chain of PRMT5/MEP50 (Q9BQA1 other isoform, or with tags, fused parts or gaps partner): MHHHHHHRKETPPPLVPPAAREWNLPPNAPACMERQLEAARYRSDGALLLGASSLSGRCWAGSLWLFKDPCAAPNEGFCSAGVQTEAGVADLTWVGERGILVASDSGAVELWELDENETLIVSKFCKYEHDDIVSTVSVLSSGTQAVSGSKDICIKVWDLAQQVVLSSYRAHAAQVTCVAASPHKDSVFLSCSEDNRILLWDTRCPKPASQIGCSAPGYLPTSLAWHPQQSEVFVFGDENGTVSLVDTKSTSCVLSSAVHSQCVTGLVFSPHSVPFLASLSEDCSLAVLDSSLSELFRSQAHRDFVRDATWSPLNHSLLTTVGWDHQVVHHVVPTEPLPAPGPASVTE

| Compound | EC50 [1] [nM] | IC50 (PRMT5/MEP50) [nM] | EC50 (Z-138 cell line) [nM] |
| --- | --- | --- | --- |
| O=C(NCC(O)CN1CCc2ccccc2C1)c1ccccc1-c1ccccn1 (stereo not drawn) [Compound 12, N-(3-(3,4-dihydroisoquinolin-2(1H)-yl)-2-hydroxypropyl)-2-(pyridin-2-yl)benzamide] | 1000 to 10000 | 101 to 1000 | > 20000 |
| O=C(NCC(O)CN1CCc2ccccc2C1)c1cccnc1 (stereo not drawn) [Compound 18] | 101 to 1000 | 101 to 1000 | 10000 to 50000 |
| NC(=O)c1ccc(C(=O)NCC(O)CN2CCc3ccccc3C2)cc1 (stereo not drawn) [Compound 22] | 101 to 1000 | 101 to 1000 | > 20000 |
| CC(=O)Nc1ccc(C(=O)NCC(O)CN2CCc3ccccc3C2)cc1 (stereo not drawn) [Compound 23, 4-acetamido-N-(3-(3,4-dihydroisoquinolin-2(1H)-yl)-2-hydroxypropyl)benzamide] | 101 to 1000 | 101 to 1000 | > 20000 |
| NC(=O)c1cccc(C(=O)NCC(O)CN2CCc3ccccc3C2)c1 (stereo not drawn) [Compound 25] | 1000 to 10000 | 101 to 1000 | > 20000 |
| CC(=O)Nc1cccc(C(=O)NCC(O)CN2CCc3ccccc3C2)c1 (stereo not drawn) [Compound 26] | 101 to 1000 | 101 to 1000 | 10000 to 50000 |
| NS(=O)(=O)c1cccc(C(=O)NCC(O)CN2CCc3ccccc3C2)c1 (stereo not drawn) [Compound 32] | 101 to 1000 | 101 to 1000 | > 20000 |
| CNCCOc1cccc(C(=O)NCC(O)CN2CCc3ccccc3C2)c1 (stereo not drawn) [Compound 39] | 1000 to 10000 | 101 to 1000 | > 20000 |
| CN1CCC(Nc2cccc(C(=O)NCC(O)CN3CCc4ccccc4C3)c2)C1 (stereo not drawn) [Compound 120] | 101 to 1000 | < 100 | 1000 to 10000 |
| O=C(NC[C@H](O)CN1CCc2ccccc2C1)c1cccc2ccccc12 [Compound 295] | < 100 | < 100 | 1000 to 10000 |
| CC(=O)N1CCC(Oc2cncc(C(=O)NC[C@H](O)CN3CCc4ccccc4C3)c2)CC1 [Compound 304] | < 100 | < 100 | 1000 to 10000 |
| Cc1cnc(OC2CCOCC2)cc1C(=O)NC[C@H](O)CN1CCc2ccccc2C1 [Compound 309] | < 100 | < 100 | 1000 to 10000 |
| Cc1ncc(NC2CCNC2)cc1C(=O)NC[C@H](O)CN1CCc2ccccc2C1 (stereo partly drawn) [Compound 310] | < 100 | < 100 | 101 to 1000 |
| Cc1cnc(NC2CNC2)cc1C(=O)NC[C@H](O)CN1CCc2ccccc2C1 [Compound 341] | > 1000 | < 100 | > 20000 |
| O=C(NC[C@H](O)CN1CCc2ccccc2C1)c1ccc2cccnc2c1O [Compound 344] | > 1000 | 101 to 1000 | 1000 to 10000 |
| CCN1CCC(Oc2ccc(C(=O)NC[C@H](O)CN3CCc4ccccc4C3)cc2)CC1 [Compound 346] | < 100 | < 100 | 101 to 1000 |
| Cc1cc(C(=O)NC[C@H](O)CN2CCc3ccccc3C2)cc(NC2CCC2)n1 [Compound 348] | < 100 | < 100 | 101 to 1000 |

Second part, led by results:

| EC50 [1] [nM] | IC50 (PRMT5/MEP50) [nM] | Compound | EC50 (Z-138 cell line) [nM] |
| --- | --- | --- | --- |
| 101 to 1000 | 101 to 1000 | O=C(NCC(O)CN1CCc2ccccc2C1)c1ccccn1 (stereo not drawn) [Compound 17, N-(3-(3,4-dihydroisoquinolin-2(1H)-yl)-2-hydroxypropyl)picolinamide] | > 20000 |
| 101 to 1000 | 101 to 1000 | NS(=O)(=O)c1ccc(C(=O)NCC(O)CN2CCc3ccccc3C2)cc1 (stereo not drawn) [Compound 21, N-(3-(3,4-dihydroisoquinolin-2(1H)-yl)-2-hydroxypropyl)-4-sulfamoylbenzamide] | > 20000 |
| 101 to 1000 | 101 to 1000 | CS(=O)(=O)Nc1ccc(C(=O)NCC(O)CN2CCc3ccccc3C2)cc1 (stereo not drawn) [Compound 31] | 10000 to 50000 |
| 1000 to 10000 | 101 to 1000 | O=C(NCC(O)CN1CCc2ccccc2C1)c1cccc(C2CCCN2)c1 (stereo not drawn) [Compound 42, N-(3-(3,4-dihydroisoquinolin-2(1H)-yl)-2-hydroxypropyl)-3-(pyrrolidin-2-yl)benzamide] | > 20000 |
| 101 to 1000 | < 100 | CN1CCC(Nc2cc(C(=O)NC[C@H](O)CN3CCc4ccccc4C3)ncn2)CC1 [Compound 206] | 1000 to 10000 |
| < 100 | < 100 | O=C(NC[C@H](O)CN1CCc2ccccc2C1)c1cncc(OC2CCN(CC(F)(F)F)CC2)c1 [Compound 289] | 101 to 1000 |
| 101 to 1000 | 101 to 1000 | O=C(NC[C@H](O)CN1CCc2ccccc2C1)c1cncc(NC2CCN(CC(F)(F)F)C2)c1 (stereo partly drawn) [Compound 303] | 1000 to 10000 |
| < 100 | < 100 | O=C(NC[C@H](O)CN1CCc2ccccc2C1)c1ccc2[nH]nnc2c1 [Compound 305] | 101 to 1000 |
| < 100 | < 100 | CN(C[C@H](O)CN1CCc2ccccc2C1)C(=O)c1cc(N(C)C2CCOCC2)ncn1 [Compound 313] | 1000 to 10000 |
| 101 to 1000 | 101 to 1000 | CN(C)C(=O)CNCCOc1cccc(C(=O)NCC(O)CN2CCc3ccccc3C2)c1 (stereo not drawn) [Compound 340] | > 20000 |
| < 100 | < 100 | Cn1ccc(Nc2cc(C(=O)NC[C@H](O)CN3CCc4ccccc4C3)ccn2)n1 [Compound 342] | 1000 to 10000 |
| < 100 | < 100 | O=C(NC[C@H](O)CN1CCc2ccccc2C1)c1ccnc(Nc2cccnc2)c1 [Compound 343] | < 100 |
| < 100 | < 100 | CN(C)CCCOc1ccc(C(=O)NC[C@H](O)CN2CCc3ccccc3C2)cc1 [Compound 345] | 101 to 1000 |
| < 100 | < 100 | O=C(NC[C@H](O)CN1CCc2ccccc2C1)c1ccc(OC2CCCNC2)cc1 (stereo partly drawn) [Compound 347] | 101 to 1000 |
| < 100 | < 100 | O=C(NC[C@H](O)CN1CCc2ccccc2C1)c1cc(NC2CCC2)nc(N2CCOCC2)c1 [Compound 349] | < 100 |
